Measurements as given in patent US20260325510A1, “COMBINATIONS COMPRISING AN ATR INHIBITOR AND A PARP INHIBITOR AND METHODS OF USE THEREOF” (Jazz Pharmaceuticals Therapeutics, Inc., priority 2023, published 2026).

Legend:
[1] = Hematology tolerability study; format: in vivo, female C57BL/6 mice; settings: free ATR inhibitor in combination with free niraparib
Description: In order to study the effects of hematology tolerability under different dosing regimens, 8-12 week old, female C57BL/6 mice were used. Body weight was measured qd×5, then biweekly to the end of the study. Animals were weighed and monitored for survival and in-life observations were collected at the time of weight measurement. […] Mice were monitored individually to endpoint which was 18 days. Full volume blood was collected by terminal cardiac puncture under isoflurane anesthesia and analyzed for reticulocyte count/number, red blood cell count/number, hemoglobin, hematocrit, platelet count/number, white blood cell count/number, neutrophil count/number, monocyte count/number and lymphocyte count/number.

[2] = Baseline monotherapy tolerability, 4 weeks IV (complete blood count); format: in vivo, female athymic nude mice; settings: 60 mg/kg IV, three times weekly
Description: Maximum tolerated dose studies were conducted on healthy, 6-8 week-old female athymic nude mice (Jackson Laboratories). For baseline monotherapy tolerability, 60 mg/kg of niraparib both in free and liposomal form was IV administered to nude mice at a dosing schedule of every other day followed by a two-day holiday (i.e., three days per week) for 4-weeks (n=5 for each cohort). Free drug was supplied in hydroxybetacyclodextrin in HEPES Buffered Saline with 5% dextrose, pH adjusted to 7.4. Study mice were then sacrificed at 24-hours post final injection with endpoint blood collection by cardiac puncture. Complete blood count (CBC) was then conducted on a Vetscan HM5 hematology analyzer (Zoetis, New Jersey, USA).
This study was conducted over a 4-week period to better capture hematopoietic turnover. Athymic nude mice were selected due to the presence of normal levels of neutrophils, monocytes, and red blood cells on top of a reduced number of non-functional lymphocytes. The immunocompromised nature of athymic nude mice allowed for better comparative translation of dose sensitivity to fully immunocompromised mice (i.e. NSG) that are required for xenograft studies.

Row | Structure (SMILES) | hematological toxicity [1] | hematological toxicity [2]
1 | CNCc1ccc(-c2cc(-c3nc(-c4ccc(S(=O)(=O)C(C)C)cc4)cnc3N)on2)cc1 [berzosertib] | severe reticulocytopenia and leukopenia | –
2 | NC(=O)c1cccc2cn(-c3ccc([C@@H]4CCCNC4)cc3)nc12 [FREE-NIRB, niraparib] | – | significant hematological toxicity in the form of macrocytic anemia
